{"source": "patent US11198695B2", "about": "“Fused ring derivative having MGAT-2 inhibitory activity” (Shionogi & Co., Ltd., priority 2017, dated 2021)"}
{"molecular_target": "recombinant human MGAT2 (Homo sapiens (Human), UniProt Q3SYC2)", "sequence (Q3SYC2 whole entry)": "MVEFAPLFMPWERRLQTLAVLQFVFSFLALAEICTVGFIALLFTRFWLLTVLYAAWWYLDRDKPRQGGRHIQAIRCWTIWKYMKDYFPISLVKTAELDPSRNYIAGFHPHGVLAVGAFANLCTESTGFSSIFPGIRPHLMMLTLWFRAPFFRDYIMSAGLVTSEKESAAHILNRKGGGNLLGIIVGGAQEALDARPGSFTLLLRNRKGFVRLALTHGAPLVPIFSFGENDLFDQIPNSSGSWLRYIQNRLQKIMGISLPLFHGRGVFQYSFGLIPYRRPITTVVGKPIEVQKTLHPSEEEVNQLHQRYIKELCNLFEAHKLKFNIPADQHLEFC", "experiment": "Measurement of human MGAT2 inhibitory activity", "format": "biochemical", "settings": "read-out: IC50 (concentration exhibiting 50% enzyme inhibition), Table 53", "method_in_brief": "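Membrane fraction of Sf9 cells expressing N-terminally Flag-tagged full-length human MGAT2, incubated 1 h at room temperature in 100 mmol/L phosphate pH 7.4 with 2 mmol/L DTT. The substrate solution held 30 μmol/L 2-oleoylglycerol and 10 μmol/L oleoyl-CoA. Diolein product was quantified by RapidFire ESI Q-TOF MS against diolein-d5 internal standard; % inhibition was set relative to with/without-enzyme controls.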", "units": {"IC50": "nM"}}
{"compound": "CS(=O)(=O)CC(=O)Nc1c2c(nn1CCn1cccn1)C[C@@]1(CCc3cc(OCC(F)(F)F)ccc31)NC2=O", "note": "[II-22]", "IC50": 32}
{"compound": "CS(=O)(=O)CC(=O)Nc1c2c(nn1CCc1ccc(F)cc1)C[C@@]1(CCc3cc(OCC(F)(F)F)ccc31)NC2=O", "note": "[II-23]", "IC50": 18}
{"compound": "CS(=O)(=O)CC(=O)Nc1c2c(nn1CCOCC(F)F)C[C@]1(CCOc3cc(OCC(F)(F)F)ccc31)NC2=O", "note": "[II-24]", "IC50": 32}
{"compound": "CS(=O)(=O)CC(=O)Nc1c2c(nn1CCCCC(F)(F)F)C[C@]1(CCOc3cc(OCC(F)(F)F)ccc31)NC2=O", "note": "[II-25]", "IC50": 7}
{"compound": "COCCCn1nc2c(c1NC(=O)CS(C)(=O)=O)C(=O)N[C@@]1(CCOc3cc(OCC(F)(F)F)ccc31)C2", "note": "[II-26]", "IC50": 9.5}
{"compound": "CS(=O)(=O)CC(=O)Nc1c2c(nn1CCn1cccn1)C[C@]1(CCOc3cc(OCC(F)(F)F)ccc31)NC2=O", "note": "[II-27]", "IC50": 21}
{"compound": "CS(=O)(=O)CC(=O)Nc1c2c(nn1CCc1ccc(F)cc1)C[C@]1(CCOc3cc(OCC(F)(F)F)ccc31)NC2=O", "note": "[II-28]", "IC50": 8.7}
{"compound": "CS(=O)(=O)CC(=O)Nc1c2c(nn1-c1ccc(C#N)cn1)CC1(CN(C(=O)c3ccc(C(F)(F)F)cc3)C1)NC2=O", "note": "[II-29]", "IC50": 220}
{"compound": "CS(=O)(=O)CC(=O)Nc1c2c(nn1-c1ccc(C#N)cn1)C[C@]1(CCc3cc(Br)ccc31)NC2=O", "note": "[II-30]", "IC50": 8.7}
{"compound": "CS(=O)(=O)CC(=O)Nc1c2c(nn1CCC1CC1)C[C@@]1(CCc3cc(NC4CC(F)(F)C4)ccc31)NC2=O", "note": "[II-32]", "IC50": 17}
{"compound": "CS(=O)(=O)CC(=O)Nc1c2c(nn1CCC1CC1)C[C@@]1(CCc3cc(N4CC(c5ccccc5)C4)ccc31)NC2=O", "note": "[II-33]", "IC50": 3.3}
{"compound": "CS(=O)(=O)CC(=O)Nc1c2c(nn1CCC1CC1)C[C@@]1(CCc3cc(N4CC(F)C4)ccc31)NC2=O", "note": "[II-34]", "IC50": 41}
{"compound": "CS(=O)(=O)CC(=O)Nc1c2c(nn1CCC1CC1)C[C@@]1(CCc3cc(N4CC(n5cccn5)C4)ccc31)NC2=O", "note": "[II-35]", "IC50": 48}
{"compound": "CS(=O)(=O)CC(=O)Nc1c2c(nn1CCC1CC1)C[C@@]1(CCc3cc(N4CC5(CCOCC5)C4)ccc31)NC2=O", "note": "[II-36]", "IC50": 53}
{"compound": "CC1(C)CN(c2ccc3c(c2)CC[C@@]32Cc3nn(CCC4CC4)c(NC(=O)CS(C)(=O)=O)c3C(=O)N2)C1", "note": "[II-37]", "IC50": 12}
{"compound": "CSCC(=O)Nc1c2c(nn1CCC1CC1)C[C@]1(CCc3cc(OCC(F)(F)F)ccc31)NC2=O", "note": "[II-38]", "IC50": 30}
{"compound": "C[S+]([O-])CC(=O)Nc1c2c(nn1CCC1CC1)C[C@]1(CCc3cc(OCC(F)(F)F)ccc31)NC2=O", "note": "(stereo partly drawn) [II-39]", "IC50": 42}
{"compound": "CS(=O)(=O)CC(=O)Nc1c2c(nn1CCC1CC1)C[C@@]1(CCc3cc(N4CC(C(F)F)C4)ccc31)NC2=O", "note": "[II-40]", "IC50": 22}
{"compound": "CC(C)OC1CN(c2ccc3c(c2)CC[C@@]32Cc3nn(CCC4CC4)c(NC(=O)CS(C)(=O)=O)c3C(=O)N2)C1", "note": "[II-41]", "IC50": 40}
{"compound": "CCOC1CN(c2ccc3c(c2)CC[C@@]32Cc3nn(CCC4CC4)c(NC(=O)CS(C)(=O)=O)c3C(=O)N2)C1", "note": "[II-42]", "IC50": 46}
{"compound": "CS(=O)(=O)CC(=O)Nc1c2c(nn1CCC1CC1)C[C@@]1(CCc3cc(N4CC(Oc5ccccc5)C4)ccc31)NC2=O", "note": "[II-43]", "IC50": 3}
{"compound": "COC1(C)CN(c2ccc3c(c2)CC[C@@]32Cc3nn(CCC4CC4)c(NC(=O)CS(C)(=O)=O)c3C(=O)N2)C1", "note": "[II-44]", "IC50": 51}
{"compound": "COC(=O)CC1CN(c2ccc3c(c2)CC[C@@]32Cc3nn(CCC4CC4)c(NC(=O)CS(C)(=O)=O)c3C(=O)N2)C1", "note": "[II-45]", "IC50": 98}
{"compound": "CS(=O)(=O)CC(=O)Nc1c2c(nn1CCC1CC1)C[C@@]1(CCc3cc(N4CC5(COC5)C4)ccc31)NC2=O", "note": "[II-50]", "IC50": 200}
{"compound": "CC(=O)Nc1c2c(nn1-c1ccc(C#N)cn1)C[C@@]1(CCc3cc(OCC(F)(F)F)ccc31)NC2=O", "note": "[II-51]", "IC50": 440}
{"compound": "CS(=O)(=O)CC(=O)Nc1c2c(nn1-c1ccc(C#N)cn1)C[C@]1(CCc3ccccc31)NC2=O", "note": "[II-52]", "IC50": 37}
{"compound": "CS(=O)(=O)CC(=O)Nc1c2c(nn1-c1ccc(C#N)cn1)CC1(CN(c3ccc(C(F)(F)F)cc3F)C1)NC2=O", "note": "[II-53]", "IC50": 14}
